The results in this text go back to patent US20260242748A1, “FORMULATION FOR CELL CRYOPRESERVATION” (ENCELL CO., LTD, priority 2023, published 2026).

The test system of test [1] is WJ-MSCs. The following applies: glutathione at 100 μM (tested 0, 10, 50, 100 μM) after H2O2 0-100 μM; FIG. 2. On the procedure: In order to determine the optimal concentration of glutathione in the cryopreservation formulation, the WJ-MSCs were treated with hydrogen peroxide (H2O2) at concentrations of 0 μM, 10 μM, 50 μM, and 100 μM, to induce stress caused by reactive oxygen species, and then further treated with glutathione at concentrations of 0 μM, 10 μM, 50 μM, and 100 μM, and cell recovery was evaluated using a CCK-8 assay.

Test [2] deals with WJ-MSCs. The following applies: FIG. 1.
Description: Specifically, the umbilical cord was cut into 3-4 cm lengths, the tissue was finely chopped and treated with collagenase solution (Gibco, USA) for 60 to 90 minutes to degrade the extracellular matrix, and 0.25% trypsin (Gibco, USA) was added to further induce digestion for 30 minutes at 37° C. Then, fetal bovine serum (FBS; Biowest, USA) was added and cells were obtained by centrifugation at 1,000 g for 10 minutes, and then were cultured in a 5% CO2 environment at 37° C. using MEM Alpha (Minimum Essential Medium, Invitrogen-Gibco, Rockville, MD) medium containing 10% FBS (fetal bovine serum, Invitrogen-Gibco) and 50 μg/mL gentamicin (Invitrogen-Gibco) to obtain human umbilical cord-derived mesenchymal stem cells (WJ-MSCs), which were then used in the experiment. […] The WJ-MSCs were seeded at 1×10^4 cells in a 96-well plate and cultured for 24 hours.

For the molecule `N[C@@H](CCC(=O)N[C@@H](CS)C(=O)NCC(=O)O)C(=O)O` [glutathione], the “cell viability (cell recovery)” value in the test with WJ-MSCs [1] is listed as “highest”. In addition, the cell viability entry with WJ-MSCs [2] (1×10^4 cells in 96-well plate, cultured 24 hours, compared with acetadote, fursultiamine hydrochloride, vitamin C) was “highest”. Further, the cell proliferation entry in the test with WJ-MSCs [2] (CCK-8 assay) was “further increased”.
